Data from US20210139517A1, “BICYCLIC HETEROARYL COMPOUNDS AND USES THEREOF” (Revolution Medicines, Inc., priority 2019, published 2021).

tested on: SOS1 function in cells: cellular pERK in PC-9 cells (EGFR Ex19Del); assay: pERK potency assay in PC-9 cells (AlphaLISA SureFire Ultra p-ERK1/2); assay type: cell-based; settings: 1 hour incubation
Protocol: The purpose of this assay is tomeasure the ability of test compounds to inhibit SOS1 function in cells. SOS1 activates RAS proteins by catalyzing the conversion of RAS-GDP to RAS-GTP in response to receptor tyrosine kinase activation. […] The procedure described below measures the level of cellular pERK in response to test compounds in PC-9 cells (EGFR Ex19Del).
PC-9 cells were grown and maintained using media and procedures recommended by the ATCC. On the day prior to compound addition, cells were plated in 384-well cell culture plates (40 μL/well) and grown overnight in a 37° C., 5% CO2 incubator. Test compounds were prepared in 10, 3-fold dilutions in DMSO, with a top concentration of 10 mM. On the day of the assay, 40 nL of test compound was added to each well of cell culture plate using an Echo550 liquid handler (LabCyte). Concentrations of test compound were tested in duplicate with highest test concentration being 10 μM. After compound addition, cells were incubated for 1 hour at 37° C., 5% CO2. Following incubation, culture medium was removed and cells were washed once with phosphate buffered saline.
Cellular pERK level was determined using the AlphaLISA SureFire Ultra p-ERK1/2 Assay Kit (PerkinElmer). Cells were lysed in 25 μL lysis buffer, with shaking at 600 RPM at room temperature for 15 minutes. Lysate (10 μL) was transferred to a 384-well Opti-plate (PerkinElmer) and 5 μL acceptor mix was added. The plate was centrifuged at 1000 RPM for 1 minute, and incubated in the dark for 2 hours. Following this incubation, 5 μL of donor mix was added, the plate was sealed and centrifuged at 1000 RPM for 1 minute, and the mixture was incubated for 2 hours at room temperature. Signal was read on an Envision plate reader (PerkinElmer) using standard AlphaLISA settings. Analysis of raw data was carried out in Excel (Microsoft) and Prism (GraphPad). Signal was plotted vs. the decadal logarithm of compound concentration, and IC50 was determined by fitting a 4-parameter sigmoidal concentration response model.

| Compound | IC50 [µM] |
| --- | --- |
| CC(=O)N1CCC(c2cc3c(N[C@H](C)c4cccc(C(F)F)c4F)ncnc3n(C)c2=O)CC1 [Example 8-3] | 0.145 |
| C[C@@H](Nc1ncnc2c1cc(C1CCN(CCF)CC1)c(=O)n2C)c1cccc(C(F)F)c1F [Example 8-4] | 0.229 |
| C[C@@H](Nc1ncnc2c1cc(C1CCS(=O)(=O)CC1)c(=O)n2C)c1cccc(C(F)F)c1F [Example 8-5] | 0.0335 |
| CC(=O)N1CCC(c2cc3c(N[C@H](C)c4cccc5c4CCC5(F)F)ncnc3n(C)c2=O)CC1 [Example 8-6] | 0.0344 |
| CCc1c(C(F)F)cccc1[C@@H](C)Nc1ncnc2c1cc(C1CCN(C(C)=O)CC1)c(=O)n2C [Example 8-7] | 0.351 |
| C[C@@H](Nc1ncnc2c1cc(C1CCN(C3COC3)CC1)c(=O)n2C)c1cccc(C(F)F)c1F [Example 8-8] | 0.389 |
| CC(=O)N1CCC(c2cc3c(N[C@H](C)c4cccc(C(F)F)c4F)nc(C)nc3n(C)c2=O)CC1 [Example 8-9] | 0.0868 |
| C[C@@H](Nc1ncnc2c1cc(C1CCN(C(=O)CO)CC1)c(=O)n2C)c1cccc(C(F)F)c1F [Example 8-10] | 0.0615 |
| Cc1c([C@@H](C)Nc2ncnc3c2cc(C2CCS(=O)(=O)CC2)c(=O)n3C)cccc1C(F)(F)F [Example 8-11] | 0.0451 |
| Cc1nc(N[C@H](C)c2cccc(C(F)F)c2F)c2cc(C3CCS(=O)(=O)CC3)c(=O)n(C)c2n1 [Example 8-12] | 0.138 |
| C[C@@H](Nc1ncnc2c1cc(C1CCN(CC(F)F)CC1)c(=O)n2C)c1cccc(C(F)F)c1F [Example 8-13] | 0.364 |
| Cc1nc(N[C@H](C)c2cccc(C(F)F)c2F)c2cc(C3CCN(C4COC4)CC3)c(=O)n(C)c2n1 [Example 8-14] | 0.42 |
| C[C@@H](Nc1ncnc2c1cc(C1CCN(S(C)(=O)=O)CC1)c(=O)n2C)c1cccc(C(F)F)c1F [Example 8-15] | 0.394 |
| C[C@@H](Nc1ncnc2c1cc(C1CCN(CC(F)(F)F)CC1)c(=O)n2C)c1cccc(C(F)F)c1F [Example 8-16] | 0.917 |
| Cc1nc(N[C@H](C)c2cccc(C(F)F)c2F)c2cc(C3CCN(CC(F)(F)F)CC3)c(=O)n(C)c2n1 [Example 8-17] | 0.542 |
| Cc1nc(N[C@H](C)c2cccc(C(F)F)c2F)c2cc(C3=CCCOC3)c(=O)n(CCO)c2n1 [Example 11-1] | 0.345 |
| C[C@@H](Nc1ncnc2c1cc(C1=CCS(=O)(=O)CC1)c(=O)n2CC#N)c1cccc(C(F)F)c1F [Example 11-3] | 0.0807 |
| COC1(c2cc3c(N[C@H](C)c4cccc(C(F)F)c4F)ncnc3n(C3CC3)c2=O)CCN(C(C)=O)CC1 [Example 11-4] | 0.0322 |
| COc1ccc(Cc2cc3c(N[C@H](C)c4cccc(C(F)F)c4F)nc(C)nc3n(C)c2=O)cc1OC [Example 20-1] | 6.6 |
| C[C@@H](Nc1ncnc2c1cc(Cc1ccccc1)c(=O)n2C)c1cccc(C(F)F)c1F [Example 20-2] | 2.55 |
| C[C@@H](Nc1ncnc2c1cc(Cc1ccccc1)c(=O)n2C)c1cccc(C(F)(F)F)c1 [Example 20-3] | 2.64 |
| COc1cccc(Cc2cc3c(N[C@H](C)c4cccc(C(F)F)c4F)nc(C)nc3n(C)c2=O)c1OC [Example 20] | 3.95 |
| C[C@@H](Nc1ncnc2c1cc(-c1ccc[nH]1)c(=O)n2C)c1cccc(C(F)F)c1F [Example 21-1] | 1.16 |

| Compound | IC50 [µM] |
| --- | --- |
| C[C@@H](Nc1ncnc2c1cc(-c1cncnc1)c(=O)n2C)c1cccc(C(F)F)c1F [Example 21-2] | 0.247 |
| Cc1nc(N[C@H](C)c2cccc(C(F)F)c2F)c2cc(-c3ccnnc3)c(=O)n(C)c2n1 [Example 21-3] | 0.188 |
| Cc1nc(N[C@H](C)c2cccc(C(F)F)c2F)c2cc(-c3cncnc3)c(=O)n(C)c2n1 [Example 21-4] | 0.365 |
| C[C@@H](Nc1ncnc2c1cc(-c1cnc(F)nc1)c(=O)n2C)c1cccc(C(F)F)c1F [Example 21-5] | 1.2 |
| COc1ncccc1-c1cc2c(N[C@H](C)c3cccc(C(F)F)c3F)ncnc2n(C)c1=O [Example 21-7] | 0.15 |
| C[C@@H](Nc1ncnc2c1cc(-c1ccc3nonc3c1)c(=O)n2C)c1cccc(C(F)F)c1F [Example 21-8] | 0.334 |
| C[C@@H](Nc1ncnc2c1cc(C1(O)CCN(C)CC1)c(=O)n2C)c1cccc(C(F)F)c1F [Example 28-1] | 0.187 |
| Cc1nc(N[C@H](C)c2cccc(C(F)F)c2F)c2cc(C3(O)CCN(C)CC3)c(=O)n(C)c2n1 [Example 28-2] | 0.572 |
| C[C@@H](Nc1ncnc2c1cc(C1(N)CCC3(CC1)CS(=O)(=O)C3)c(=O)n2C)c1cccc(C(F)F)c1F [Example 31-5] | 0.0267 |
| COC1(c2cc3c(N[C@H](C)c4cccc(C(F)F)c4F)ncnc3n(C)c2=O)CCN(C)CC1 [Example 32-3] | 2.24 |
| COC1(c2cc3c(N[C@H](C)c4cccc(C(F)F)c4F)ncnc3n(C)c2=O)CCS(=O)(=O)C(C)C1 (stereo partly drawn) [Example 32-67] | 0.128 |
| COC1(c2cc3c(N[C@H](C)c4cccc(C(F)F)c4F)ncnc3n(C)c2=O)CCCN(C(C)=O)C1 (stereo partly drawn) [Example 32-68] | 0.0676 |
| CO[C@@]1(c2cc3c(N[C@H](C)c4cccc(C(F)F)c4F)nc(C)nc3n(C)c2=O)CCN(C(C)=O)C1 [Example 32-69] | 0.0778 |
| CC(=O)N1CCC(OC2CC2)(c2cc3c(N[C@H](C)c4cccc(C(F)F)c4F)ncnc3n(C)c2=O)C1 (stereo partly drawn) [Example 32-70] | 0.35 |
| CC(=O)N1CCC(OC2CC2)(c2cc3c(N[C@H](C)c4cccc(C(F)F)c4F)ncnc3n(C)c2=O)C1 (stereo partly drawn) [Example 32-71] | 0.0418 |
| COC1(c2cc3c(N[C@H](C)c4cccc(C(F)F)c4F)ncnc3n(C)c2=O)CCC2(CC1)COC2 [Example 32-72] | 0.127 |
| COC1(c2cc3c(N[C@H](C)c4cccc(C(F)F)c4F)ncnc3n(C)c2=O)CCS(=O)(=O)C1 (stereo partly drawn) [Example 32-73] | 0.0571 |
| COC1(c2cc3c(N[C@H](C)c4cccc(C(F)F)c4F)ncnc3n(C)c2=O)CCS(=O)(=O)C1 (stereo partly drawn) [Example 32-74] | 0.201 |
| COC1(c2cc3c(N[C@H](C)c4cccc5c4OCC5(F)F)ncnc3n(C)c2=O)CCN(C(C)=O)CC1 [Example 32-76] | 0.0175 |
| COC1(c2cc3c(N[C@H](C)c4cccc5c4OCC5(F)F)ncnc3n(C)c2=O)CCS(=O)(=O)CC1 [Example 32-77] | 0.0477 |
| COC1(c2cc3c(N[C@H](C)c4cccc(C(F)F)c4F)ncnc3n(C)c2=O)CCC2(CC1)CN(C(C)=O)C2 [Example 32-78] | 0.0493 |
| COC1(c2cc3c(N[C@H](C)c4cccc(C(F)F)c4F)ncnc3n(C)c2=O)CC2(COC2)C1 [Example 32-80] | 0.154 |
| COC1(c2cc3c(N[C@H](C)c4cccc(C(F)F)c4F)ncnc3n(C)c2=O)CCC2(CC1)CS(=O)(=NC1CC1)C2 (stereo partly drawn) [Example 32-83] | 0.321 |

same assay, conditions: Homo sapiens, PC-9, 1 h, 1 hour incubation

| Compound | IC50 [µM] |
| --- | --- |
| Cc1nc(N[C@H](C)c2cccc(C(F)F)c2F)c2cc(C3COC3)c(=O)n(C)c2n1 [Example 16, 4-[[(1R)-1-[3-(difluoromethyl)-2-fluoro-phenyl]ethyl]amino]-2,8-dimethyl-6-(oxetan-3-yl)pyrido[2,3-d]pyrimidin-7-one] | 0.346 |
| CC(=O)N1CCC(c2cc3c(N[C@H](C)c4cc(N)cc(C(F)(F)F)n4)ncnc3n(C)c2=O)CC1 [Example 17, 6-(1-acetyl-4-piperidyl)-4-[[(1R)-1-[4-amino-6-(trifluoromethyl)-2-pyridyl]ethyl]amino]-8-methyl-pyrido[2,3-d]pyrimidin-7-one] | 0.377 |
